Experimental findings from ChEMBL document CHEMBL1201862, “PubChem BioAssay data set” (2004) are described below.

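Method: 48-hour compound exposure of cells in 96-well plates, five concentrations, linear interpolation of endpoints. GI50 marks 50% less growth.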 Active and inactive are the calls of the source. Rule as the data show it: active = GI50 up to about 1.1 µM and inactive = higher.

Among the test systems are ACHN; HCC 2998; KM-20L2; KM12; M14; MCF7; NCI-H226; NCI-H23; OVCAR-3; SF-268; SF-295; SF-539; SK-MEL-28; SN12C; SNB-75; SR; UACC-257; UO-31; DU-145; MDA-MB-435.
Common to all, as to assay: NCI anticancer screen, dose series, 48 h

In the case of `CN(C)CCCn1c2c3ccccc3ccc2c2oc(=O)c3ccccc3c21`, the GI50 was 6.79 µM (inactive) in the assay with ACHN; 1.22 µM (inactive) with HCC 2998; 1.39 µM (inactive) in the assay with KM-20L2; 3.83 µM (inactive) in the assay with KM12; 6.03 µM (inactive) in the assay with M14; 7.19 µM (inactive) in the assay on MCF7. Moreover, the GI50 is > 35.2 µM (inactive) in the assay with NCI-H226; 6.82 µM (inactive) in the assay with NCI-H23; 5.48 µM (inactive) with OVCAR-3; 5.41 µM (inactive) in the assay on SF-268; 3.62 µM (inactive) with SF-295; 4.66 µM (inactive) in the assay on SF-539. Moreover, the GI50 in the assay with SK-MEL-28 was 7.46 µM (inactive); with SN12C it was 5.62 µM (inactive); with SNB-75, 2.48 µM (inactive); in the assay on SR it was 0.914 µM (active); in the assay with UACC-257 it was 8.65 µM (inactive); in the assay with UO-31 it was 3.44 µM (inactive).

With `O=C1NC(=S)NC(=O)C1=C(O)Nc1ccccc1`, the GI50 in the assay on ACHN was 23.6 µM (inactive); with DU-145, 30.5 µM (inactive); with HCC 2998, 42.8 µM (inactive); with KM-20L2 it was 44.9 µM (inactive); in the assay on KM12, 36.6 µM (inactive); in the assay with M14, 36.2 µM (inactive). Further, the GI50 in the assay with MCF7 is 19.1 µM (inactive); with MDA-MB-435, 7.98 µM (inactive); in the assay on NCI-H226, 30.5 µM (inactive); in the assay with NCI-H23 it was 26.3 µM (inactive); with OVCAR-3 it was 25.5 µM (inactive); with SF-268 it was 32.7 µM (inactive). Further, the GI50 with SF-295 was 27.7 µM (inactive); in the assay on SF-539, 23.8 µM (inactive); with SK-MEL-28 it was 47.9 µM (inactive); in the assay with SN12C, 25.8 µM (inactive); in the assay with SNB-75, 27.7 µM (inactive); in the assay with SR, 12.8 µM (inactive). The values for the GI50 with UACC-257 and in the assay on UO-31 were 38.1 µM (inactive) and 26.5 µM (inactive), respectively.

On to `O=C1/C(=C\c2ccccc2)CN(C(=O)CCN2CCCCC2)C/C1=C/c1ccccc1`, for which the GI50 in the assay on ACHN was 1.95 µM (inactive); in the assay on DU-145 it was 5.21 µM (inactive); in the assay with HCC 2998, 1.44 µM (inactive); with KM-20L2, 0.811 µM (active); in the assay on KM12 it was 0.379 µM (active); in the assay with M14, 1.7 µM (inactive). The GI50 with MCF7 is 0.415 µM (active); in the assay with MDA-MB-435 it was 2.05 µM (inactive); in the assay on NCI-H226, 6.11 µM (inactive); with NCI-H23 it was 1.89 µM (inactive); with OVCAR-3 it was 2.28 µM (inactive); with SF-268, 1.78 µM (inactive). Also, the GI50 is 1.67 µM (inactive) in the assay on SF-295; 3.25 µM (inactive) in the assay on SF-539; 1.97 µM (inactive) in the assay with SK-MEL-28; 0.966 µM (active) in the assay on SN12C; 0.834 µM (active) in the assay on SNB-75; 0.315 µM (active) in the assay on SR. Also, the values for the GI50 in the assay with UACC-257 and in the assay with UO-31 were 1.76 µM (inactive) and 1.91 µM (inactive), respectively.

In the case of `O[C@H]1[C@H](O)[C@@H](O)CN2CC[C@H](O)[C@H]12` [CASTANOSPERMINE], the GI50 with HCC 2998 is > 95.5 µM (inactive); in the assay with KM-20L2, > 100 µM (inactive); in the assay on KM12, > 100 µM (inactive); with MCF7 it was > 100 µM (inactive); in the assay on NCI-H226, > 100 µM (inactive); with NCI-H23, > 100 µM (inactive). Besides, the GI50 in the assay on OVCAR-3, in the assay with SF-268, with SF-295, with SF-539, in the assay with SK-MEL-28 and in the assay with SN12C was > 100 µM (inactive) each time. The GI50 was > 100 µM (inactive) in the assay on SNB-75, > 100 µM (inactive) in the assay with UACC-257 and > 94.4 µM (inactive) in the assay on UO-31.

Take `Cn1c(-c2ccccc2)cc(-c2cccs2)c1-c1cccs1`: the GI50 in the assay on HCC 2998 was 49.5 µM (inactive); with KM-20L2, 47.2 µM (inactive); with KM12 it was 22.3 µM (inactive); in the assay with MCF7, 24 µM (inactive); in the assay on NCI-H226, > 100 µM (inactive); in the assay on NCI-H23, 49.3 µM (inactive). Also, the GI50 with OVCAR-3, in the assay with SF-268, with SF-295, in the assay with SF-539, with SK-MEL-28 and in the assay on SN12C was > 100 µM (inactive) throughout. Further, the results for the GI50 with SNB-75, in the assay on UACC-257 and in the assay with UO-31 were > 100 µM (inactive), > 35.4 µM (inactive) and > 100 µM (inactive), respectively.

Turning to `O=C1c2cccc(NCCNCCO)c2C(=O)c2cccc(NCCNCCO)c21`, the GI50 with ACHN was 2.55 µM (inactive); in the assay on DU-145, 0.612 µM (active); with HCC 2998, 0.802 µM (active); in the assay with KM-20L2 it was 1.18 µM (inactive); in the assay on KM12 it was 0.792 µM (active); in the assay on M14, 1.81 µM (inactive). Besides, the GI50 with MCF7 was 0.39 µM (active); in the assay with MDA-MB-435, 1.25 µM (inactive); in the assay with NCI-H226 it was 0.998 µM (active); in the assay on NCI-H23, 1.87 µM (inactive); with OVCAR-3, 1.57 µM (inactive); with SF-268, 0.518 µM (active). Moreover, the GI50 was 1.79 µM (inactive) in the assay on SF-295; 0.601 µM (active) with SF-539; 1.71 µM (inactive) with SK-MEL-28; 0.782 µM (active) with SN12C; 1.03 µM (active) in the assay on SNB-75; 0.519 µM (active) in the assay on SR. For the same molecule, the GI50 in the assay with UACC-257 was 3.04 µM (inactive); with UO-31 it was 4.72 µM (inactive).

Regarding `O=C1c2cccc(NCCCNCCO)c2C(=O)c2cccc(NCCCNCCO)c21`, the GI50 with ACHN is 2.08 µM (inactive); in the assay on DU-145, 2.62 µM (inactive); in the assay on HCC 2998 it was 0.9 µM (active); with KM-20L2, 2.75 µM (inactive); in the assay with KM12 it was 2.12 µM (inactive); in the assay on M14 it was 3.61 µM (inactive). Moreover, the GI50 is 0.325 µM (active) with MCF7; 1.67 µM (inactive) in the assay on MDA-MB-435; 1.81 µM (inactive) in the assay with NCI-H23; 3.05 µM (inactive) in the assay on OVCAR-3; 1.49 µM (inactive) in the assay with SF-539; 1.83 µM (inactive) in the assay with SK-MEL-28. In addition, the GI50 was 0.935 µM (active) with SN12C, 6.08 µM (inactive) in the assay with UACC-257 and 9.59 µM (inactive) with UO-31.

`COC(=O)C1(O)CC(=O)CCC1c1ccc(OC)cc1` (stereo not given): the GI50 in the assay with ACHN, in the assay on HCC 2998, with KM-20L2, with KM12, with M14 and in the assay with NCI-H226 was > 100 µM (inactive) each time. Moreover, the GI50 with NCI-H23, in the assay with OVCAR-3, in the assay on SF-268, with SF-295, in the assay with SF-539 and in the assay on SK-MEL-28 was > 100 µM (inactive) in each case. Also, the GI50 in the assay with SN12C, in the assay on SNB-75, in the assay on SR, with UACC-257 and with UO-31 was > 100 µM (inactive) each time.
